In patent US5646180A (priority 1995, dated 1997):
Like-named read-outs stand apart in the source and are kept apart here.

Columns and labels:
[1] = cited from earlier work
HIV-1 protease = experiment: ligand for / inhibition of HIV-1 protease; format: biochemical
HIV-2 protease = experiment: ligand for / inhibition of HIV-2 protease; format: biochemical
HIV-1 virus = experiment: HIV-1 infection of immortalized human T cells, assay of extracellular p24 antigen; format: cell-based; settings: over a period of days
From the text: Accordingly, the compound is capable of targeting and inhibiting late stage events in HIV replication, i.e., the processing of the viral polyproteins by HIV encoded proteases. […] Because aspartyl protease is essential for the production of mature virions, inhibition of that processing effectively blocks the spread of virus by inhibiting the production of infectious virions, particularly from chronically infected cells. […] Other anti-viral assays have confirmed the potency of this compound.

HIV = format: cell-based
[2] = From the text: […]. The potential of this compound to be delivered at doses far exceeding its effective antiviral level is advantageous in slowing or preventing the possibility of resistant variants developing.
oral availability = format: in vivo; settings: oral administration, mammals
aqueous solubility = format: physicochemical; settings: water
[3] = prior-art HIV drugs, background statement, nucleosides compared with AZT

SMILES: CC(C)c1nc(CN(C)C(=O)N[C@H](C(=O)N[C@@H](Cc2ccccc2)C[C@H](O)[C@H](Cc2ccccc2)NC(=O)OCc2cncs2)C(C)C)cs1 [ABT 538]
- CNS distribution / CNS penetration (in words) ([1]; in vivo): very limited CNS penetration

SMILES: CC(C)CN(CC(O)C(Cc1ccccc1)NC(=O)OC1CCOC1)S(=O)(=O)c1ccc(N)cc1 (stereo not shown) [Compound I]
- ligand for HIV-1 protease (in words) (HIV-1 protease): excellent ligand
- ligand for HIV-2 protease (in words) (HIV-2 protease): excellent ligand
- inhibition of the ability of HIV-1 to infect immortalized human T cells (in words) (HIV-1 virus): inhibits the ability of the HIV-1 virus to infect immortalized human T cells
- combination effect in preventing the replication of HIV in human T cells (in words) (HIV): acts in an additive or synergistical manner
- therapeutic index (in words) [2]: impressively high therapeutic index
- oral availability (in words) (oral availability): surprisingly impressive oral availability
- solubility (aqueous solubility): ≥ 100 µg/mL

SMILES: CC(C)(C)NC(=O)[C@@H]1CN(Cc2cccnc2)CCN1C[C@@H](O)C[C@@H](Cc1ccccc1)C(=O)N[C@H]1c2ccccc2C[C@H]1O [Compound L-535524]
- CNS distribution / CNS penetration (in words) [1, 3]: about the same distribution

SMILES: Cc1cn([C@H]2C=C[C@@H](CO)O2)c(=O)[nH]c1=O [d4T]
- CNS distribution / CNS penetration (in words) [1, 3]: even worse distribution profiles in the CNS
